Measurements from patent US11331299B2, “Medicinal use of serrulatane diterpenes” (The University of Sydney, priority 2016, dated 2022).
Read-outs that look alike come from different tables or passages of the source.

Experiments:
[1] = molecular target: T1, USP 21 (h) (Homo sapiens, UniProt Q9UK80); experiment: Epigenetic enzyme assay, Ubiquitin modifying enzymes; assay type: biochemical; details: 10 μM; read-out: % Inhibition of Control Values
T1 sequence (Q9UK80 1-565): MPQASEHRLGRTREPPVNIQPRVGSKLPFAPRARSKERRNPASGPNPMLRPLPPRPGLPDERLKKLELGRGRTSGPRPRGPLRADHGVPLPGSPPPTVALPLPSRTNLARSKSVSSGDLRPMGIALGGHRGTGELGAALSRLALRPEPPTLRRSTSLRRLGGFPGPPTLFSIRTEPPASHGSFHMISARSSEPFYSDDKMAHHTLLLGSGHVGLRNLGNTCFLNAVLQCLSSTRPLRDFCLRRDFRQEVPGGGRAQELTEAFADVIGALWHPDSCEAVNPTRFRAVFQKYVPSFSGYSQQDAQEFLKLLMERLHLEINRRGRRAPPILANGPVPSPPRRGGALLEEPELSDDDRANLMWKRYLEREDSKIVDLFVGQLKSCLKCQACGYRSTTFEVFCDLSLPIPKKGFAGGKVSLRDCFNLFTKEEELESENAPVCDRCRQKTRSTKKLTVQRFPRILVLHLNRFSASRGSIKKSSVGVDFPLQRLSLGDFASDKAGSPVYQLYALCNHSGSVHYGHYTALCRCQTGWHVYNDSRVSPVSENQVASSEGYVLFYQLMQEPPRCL

[2] = molecular target: pCAF(h) (Homo sapiens, UniProt Q92831); experiment: Epigenetic enzyme assay, Histone acetyltransferases (HATs); assay type: biochemical; details: read-out: % Inhibition of Control Values
[3] = molecular target: USP 14 (h) (Homo sapiens, UniProt P54578); experiment: Epigenetic enzyme assay, Ubiquitin modifying enzymes; assay type: biochemical; details: 10 μM; read-out: % Inhibition of Control Values
[4] = molecular target: EZH2/EED/SUZ12 (h) (PRC2 complex) (Homo sapiens, UniProt Q15910); experiment: Epigenetic enzyme assay, Methyltransferases (MTs); assay type: biochemical; details: read-out: % Inhibition of Control Values
Chain of EZH2/EED/SUZ12 (h) (PRC2 complex) (Q15910 whole entry): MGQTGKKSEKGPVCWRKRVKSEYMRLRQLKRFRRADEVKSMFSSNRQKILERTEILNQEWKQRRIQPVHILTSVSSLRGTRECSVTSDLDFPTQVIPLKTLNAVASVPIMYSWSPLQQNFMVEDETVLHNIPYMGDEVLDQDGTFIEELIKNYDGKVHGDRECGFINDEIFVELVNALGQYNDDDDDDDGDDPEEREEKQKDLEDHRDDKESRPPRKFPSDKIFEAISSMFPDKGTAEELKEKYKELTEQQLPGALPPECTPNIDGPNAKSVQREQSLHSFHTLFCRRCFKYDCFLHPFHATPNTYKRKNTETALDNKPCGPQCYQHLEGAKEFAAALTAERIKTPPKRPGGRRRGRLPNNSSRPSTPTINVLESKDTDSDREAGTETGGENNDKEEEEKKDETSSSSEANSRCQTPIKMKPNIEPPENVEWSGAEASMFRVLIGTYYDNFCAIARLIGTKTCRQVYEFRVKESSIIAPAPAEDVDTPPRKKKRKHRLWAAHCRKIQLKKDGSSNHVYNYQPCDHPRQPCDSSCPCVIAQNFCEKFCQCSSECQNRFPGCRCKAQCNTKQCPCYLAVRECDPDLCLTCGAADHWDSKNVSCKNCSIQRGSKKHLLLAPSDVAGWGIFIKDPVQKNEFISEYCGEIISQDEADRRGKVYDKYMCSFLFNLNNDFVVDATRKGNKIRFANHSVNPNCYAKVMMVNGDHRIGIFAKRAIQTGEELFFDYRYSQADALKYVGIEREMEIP
Chain of EZH2/EED/SUZ12 (h) (PRC2 complex) (O75530 whole entry partner): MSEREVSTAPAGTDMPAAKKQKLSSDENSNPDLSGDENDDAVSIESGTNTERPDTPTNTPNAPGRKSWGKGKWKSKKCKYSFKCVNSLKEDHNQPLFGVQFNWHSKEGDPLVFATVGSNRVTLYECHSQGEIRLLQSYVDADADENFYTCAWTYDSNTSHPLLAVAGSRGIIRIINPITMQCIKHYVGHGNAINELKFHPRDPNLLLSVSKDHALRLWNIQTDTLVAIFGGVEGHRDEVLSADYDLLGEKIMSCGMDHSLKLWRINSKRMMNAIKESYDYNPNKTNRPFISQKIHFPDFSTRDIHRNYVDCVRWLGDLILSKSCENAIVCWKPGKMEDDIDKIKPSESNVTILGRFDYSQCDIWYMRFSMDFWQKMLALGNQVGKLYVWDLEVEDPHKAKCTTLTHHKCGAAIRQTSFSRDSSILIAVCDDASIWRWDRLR
Chain of EZH2/EED/SUZ12 (h) (PRC2 complex) (Q15022 whole entry partner): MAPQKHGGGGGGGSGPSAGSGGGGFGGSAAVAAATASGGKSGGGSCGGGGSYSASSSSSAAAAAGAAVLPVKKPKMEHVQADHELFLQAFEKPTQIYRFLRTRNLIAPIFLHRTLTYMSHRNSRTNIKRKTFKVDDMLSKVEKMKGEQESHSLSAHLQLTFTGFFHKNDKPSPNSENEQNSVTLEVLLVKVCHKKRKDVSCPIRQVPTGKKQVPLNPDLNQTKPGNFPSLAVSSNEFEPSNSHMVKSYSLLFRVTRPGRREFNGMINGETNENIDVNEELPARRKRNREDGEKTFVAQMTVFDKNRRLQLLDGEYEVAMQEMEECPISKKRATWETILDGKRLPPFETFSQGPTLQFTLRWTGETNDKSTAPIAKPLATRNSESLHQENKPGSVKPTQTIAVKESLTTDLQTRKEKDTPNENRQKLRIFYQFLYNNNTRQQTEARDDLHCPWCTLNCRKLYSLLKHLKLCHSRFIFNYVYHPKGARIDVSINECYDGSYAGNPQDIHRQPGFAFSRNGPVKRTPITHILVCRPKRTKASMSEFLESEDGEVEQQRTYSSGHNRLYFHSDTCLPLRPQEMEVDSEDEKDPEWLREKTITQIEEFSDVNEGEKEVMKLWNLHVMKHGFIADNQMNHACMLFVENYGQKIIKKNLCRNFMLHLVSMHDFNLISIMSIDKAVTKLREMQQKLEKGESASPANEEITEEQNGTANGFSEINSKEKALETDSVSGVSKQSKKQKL

[5] = molecular target: T2, ATAD2A (h) bromodomain (Homo sapiens, UniProt Q6PL18); experiment: Epigenetic binding assay, Bromodomain; details: for inhibition at 10 µM: read-out: % Inhibition of Control Specific Binding
T2 construct: Bromodomain
T2 sequence (Q6PL18 980-1092 limits assumed): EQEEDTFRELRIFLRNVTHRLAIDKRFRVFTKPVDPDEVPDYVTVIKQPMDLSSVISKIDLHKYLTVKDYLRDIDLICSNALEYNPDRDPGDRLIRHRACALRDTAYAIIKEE

[6] = molecular target: T3, BRDT(1) (h) bromodomain (Homo sapiens, UniProt Q58F21); experiment: Epigenetic binding assay, Bromodomain; details: read-out: % Inhibition of Control Specific Binding
T3 construct: Bromodomain; Eurofins CEREP (France), contract laboratory

[7] = molecular target: ASH1L (Homo sapiens, UniProt Q9NR48); experiment: Epigenetic enzyme assay, Methyltransferases (MTs); assay type: biochemical; details: for inhibition at 10 µM: read-out: % Inhibition of Control Values
[8] = molecular target: T4, PB1(4) (h) bromodomain (Homo sapiens, UniProt Q86U86); experiment: Epigenetic binding assay, Bromodomain; details: 10 μM; read-out: % Inhibition of Control Specific Binding
T4 construct: Bromodomain
T4 sequence (Q86U86 518-625 limits assumed): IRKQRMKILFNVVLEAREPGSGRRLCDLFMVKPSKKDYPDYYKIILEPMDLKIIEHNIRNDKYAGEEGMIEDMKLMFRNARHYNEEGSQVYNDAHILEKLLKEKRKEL

[9] = molecular target: T5, Chemokine CCR1 (Homo sapiens, UniProt P32246); experiment: Chemokine CCR1 radio ligand binding; details: assay year 2015, read-out: % Control Response
T5 construct: expressed in transfected cells; host or cells: Chem-2 cells
T5 sequence (P32246 1-355): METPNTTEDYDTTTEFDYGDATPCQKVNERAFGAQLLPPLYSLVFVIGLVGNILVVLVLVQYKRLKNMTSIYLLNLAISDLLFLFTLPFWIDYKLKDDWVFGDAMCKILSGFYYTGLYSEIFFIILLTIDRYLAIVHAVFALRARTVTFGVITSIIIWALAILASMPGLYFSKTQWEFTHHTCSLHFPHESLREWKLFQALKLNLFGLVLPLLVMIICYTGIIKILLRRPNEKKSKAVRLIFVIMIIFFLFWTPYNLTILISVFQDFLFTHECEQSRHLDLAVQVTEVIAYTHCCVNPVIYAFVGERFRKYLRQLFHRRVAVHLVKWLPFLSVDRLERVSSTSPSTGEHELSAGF
Protocol: (§1) The in vitro pharmacological studies were conducted by Eurofins PanLab (Taiwan) using the parameters shown in Table 13 with respect to appropriate literature references.

[10] = molecular target: MLL3(h) complex (Homo sapiens, UniProt Q8NEZ4); experiment: Epigenetic enzyme assay, Methyltransferases (MTs); assay type: biochemical; details: for inhibition at 10 µM: read-out: % Inhibition of Control Values
[11] = test system: SK-NEP-1 kidney; experiment: OncoPanel cell proliferation assay (10-day); assay type: cell-based; details: Homo sapiens; for EC50: read-out: Cell Count EC50; for IC50: read-out: Cell Count IC50
[12] = molecular target: T6, PCAF (h) bromodomain (Homo sapiens, UniProt Q92831); experiment: Epigenetic binding assay, Bromodomain; details: 10 μM; read-out: % Inhibition of Control Specific Binding
T6 construct: Bromodomain
T6 sequence (Q92831 723-827 limits assumed): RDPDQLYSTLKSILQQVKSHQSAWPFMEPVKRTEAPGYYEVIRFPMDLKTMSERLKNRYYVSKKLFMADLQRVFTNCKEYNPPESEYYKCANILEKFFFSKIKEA

[13] = molecular target: UTX (h) (Homo sapiens, UniProt O15550); experiment: Epigenetic enzyme assay, Demethylases (KDMs); assay type: biochemical; details: for inhibition at 10 µM: read-out: % Inhibition of Control Values
Chain of UTX (h) (O15550 whole entry): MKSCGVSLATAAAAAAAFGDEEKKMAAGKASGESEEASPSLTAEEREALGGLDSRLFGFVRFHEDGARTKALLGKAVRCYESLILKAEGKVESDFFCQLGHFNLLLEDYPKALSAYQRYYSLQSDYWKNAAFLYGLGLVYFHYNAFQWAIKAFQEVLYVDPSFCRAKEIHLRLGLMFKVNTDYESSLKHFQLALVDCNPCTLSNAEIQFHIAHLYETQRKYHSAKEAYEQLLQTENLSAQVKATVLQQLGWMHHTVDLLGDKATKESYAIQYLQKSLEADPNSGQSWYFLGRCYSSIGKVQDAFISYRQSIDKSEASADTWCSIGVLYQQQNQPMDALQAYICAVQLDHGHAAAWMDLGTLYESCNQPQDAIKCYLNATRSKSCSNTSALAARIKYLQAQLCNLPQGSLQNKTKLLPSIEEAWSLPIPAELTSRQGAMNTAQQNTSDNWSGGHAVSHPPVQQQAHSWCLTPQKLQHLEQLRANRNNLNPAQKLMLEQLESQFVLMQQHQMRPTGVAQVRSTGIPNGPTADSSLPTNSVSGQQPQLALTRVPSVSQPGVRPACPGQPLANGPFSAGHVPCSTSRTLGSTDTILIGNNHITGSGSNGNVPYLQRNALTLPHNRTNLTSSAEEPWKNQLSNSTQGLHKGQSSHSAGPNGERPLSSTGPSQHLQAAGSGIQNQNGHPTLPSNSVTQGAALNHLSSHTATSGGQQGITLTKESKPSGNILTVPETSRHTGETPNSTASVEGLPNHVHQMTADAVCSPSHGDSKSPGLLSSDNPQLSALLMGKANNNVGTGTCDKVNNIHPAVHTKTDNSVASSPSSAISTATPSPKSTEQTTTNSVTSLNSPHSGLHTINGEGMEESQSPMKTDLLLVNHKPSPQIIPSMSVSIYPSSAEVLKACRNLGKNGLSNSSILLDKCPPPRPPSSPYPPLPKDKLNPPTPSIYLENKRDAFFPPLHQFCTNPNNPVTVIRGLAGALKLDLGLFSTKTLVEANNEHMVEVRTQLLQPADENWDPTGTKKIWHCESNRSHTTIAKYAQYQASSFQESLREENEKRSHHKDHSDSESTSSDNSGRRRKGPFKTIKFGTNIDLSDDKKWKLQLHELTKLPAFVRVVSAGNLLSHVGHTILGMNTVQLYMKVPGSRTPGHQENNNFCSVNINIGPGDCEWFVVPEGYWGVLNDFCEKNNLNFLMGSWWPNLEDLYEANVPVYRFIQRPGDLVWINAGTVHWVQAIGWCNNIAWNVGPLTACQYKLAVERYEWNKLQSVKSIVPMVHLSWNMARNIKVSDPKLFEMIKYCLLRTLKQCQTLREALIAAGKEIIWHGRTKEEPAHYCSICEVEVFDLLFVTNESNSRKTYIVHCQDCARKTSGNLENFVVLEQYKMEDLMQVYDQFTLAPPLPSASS

[14] = test system: Steroid 5alpha-Reductase; experiment: Steroid 5α-Reductase; assay type: biochemical, Wistar Rat; details: 10 μM; assay year 2015
Protocol: as §1

[15] = test system: H3K27 me2-1; experiment: Cell-based detection methyl modifications; details: read-out: % Inhibition of Control Values
[16] = molecular target: Histamine N-methyltransferase (h) (Homo sapiens, UniProt P50135); experiment: Epigenetic enzyme assay, Small molecule methyltransferases; assay type: biochemical; details: read-out: % Inhibition of Control Values
Chain of Histamine N-methyltransferase (h) (P50135 whole entry): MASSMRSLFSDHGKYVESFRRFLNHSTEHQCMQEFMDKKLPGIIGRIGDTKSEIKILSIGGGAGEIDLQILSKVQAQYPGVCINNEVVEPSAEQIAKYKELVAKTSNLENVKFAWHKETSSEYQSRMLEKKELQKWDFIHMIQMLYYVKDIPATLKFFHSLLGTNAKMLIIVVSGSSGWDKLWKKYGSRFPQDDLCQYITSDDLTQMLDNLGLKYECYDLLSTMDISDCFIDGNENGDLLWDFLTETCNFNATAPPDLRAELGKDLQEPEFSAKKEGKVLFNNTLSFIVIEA

[17] = molecular target: MSK1(h) (substrate histone H3 full length) (Homo sapiens, UniProt O75582); experiment: Epigenetic enzyme assay, Kinases; assay type: biochemical; details: read-out: % Inhibition of Control Values
[18] = molecular target: JARID1B (h) (Homo sapiens, UniProt Q9UGL1); experiment: Epigenetic enzyme assay, Demethylases (KDMs); assay type: biochemical; details: for inhibition at 10 µM: read-out: % Inhibition of Control Values
[19] = molecular target: PRMT5 complex (h) (Homo sapiens, UniProt O14744); experiment: Epigenetic enzyme assay, Methyltransferases (MTs); assay type: biochemical; details: read-out: % Inhibition of Control Values
Chain of PRMT5 complex (h) (O14744 whole entry): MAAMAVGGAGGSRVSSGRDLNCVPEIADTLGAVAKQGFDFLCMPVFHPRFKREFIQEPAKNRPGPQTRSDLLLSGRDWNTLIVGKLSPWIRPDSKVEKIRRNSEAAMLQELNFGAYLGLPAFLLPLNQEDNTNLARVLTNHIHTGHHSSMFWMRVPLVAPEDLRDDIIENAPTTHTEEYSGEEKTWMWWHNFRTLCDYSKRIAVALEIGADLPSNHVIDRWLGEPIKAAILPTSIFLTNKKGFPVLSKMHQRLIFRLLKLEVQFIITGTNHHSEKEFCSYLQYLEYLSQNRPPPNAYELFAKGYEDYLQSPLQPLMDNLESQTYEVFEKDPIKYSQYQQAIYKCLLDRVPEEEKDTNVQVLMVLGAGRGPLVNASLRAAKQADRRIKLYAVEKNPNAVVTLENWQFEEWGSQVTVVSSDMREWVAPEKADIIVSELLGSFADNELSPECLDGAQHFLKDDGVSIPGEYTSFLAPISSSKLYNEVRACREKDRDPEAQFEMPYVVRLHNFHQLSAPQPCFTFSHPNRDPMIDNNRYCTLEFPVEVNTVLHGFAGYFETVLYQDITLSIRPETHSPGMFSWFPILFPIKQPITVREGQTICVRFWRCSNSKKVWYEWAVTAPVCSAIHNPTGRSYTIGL
Chain of PRMT5 complex (h) (Q9BQA1 whole entry partner): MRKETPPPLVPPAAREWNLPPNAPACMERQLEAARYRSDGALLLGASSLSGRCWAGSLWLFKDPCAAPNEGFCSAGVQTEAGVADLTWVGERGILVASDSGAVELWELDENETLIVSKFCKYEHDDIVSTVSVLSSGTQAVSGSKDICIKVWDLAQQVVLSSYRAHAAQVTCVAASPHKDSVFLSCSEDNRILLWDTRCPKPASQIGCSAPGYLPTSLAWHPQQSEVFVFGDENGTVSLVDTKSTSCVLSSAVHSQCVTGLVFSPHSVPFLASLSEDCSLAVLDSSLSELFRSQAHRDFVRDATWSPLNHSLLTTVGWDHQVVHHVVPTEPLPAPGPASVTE

[20] = test system: Hs695T melanoma cell line; experiment: OncoPanel cell proliferation assay (10-day); assay type: cell-based; details: Homo sapiens, Hs 695T; for EC50: read-out: Cell Count EC50; for IC50: read-out: Cell Count IC50
[21] = test system: SW480; experiment: OncoPanel cell proliferation assay (10-day); assay type: cell-based, human; details: for EC50 / GI50 / IC50: Homo sapiens, SW480, Colon; for EC50: read-out: Cell Count EC50; for GI50: read-out: Cell Count GI50; for IC50: read-out: Cell Count IC50
[22] = SK-NEP-1, Kidney, read-out: Cell Count GI50
[23] = Table 11, inhibition/concentration-response curve
[24] = Skin (Melanoma), read-out: Cell Count GI50

CC(C)=CCC[C@H](CO)[C@@H]1CC[C@@H](C)c2c1cc(C)c(O)c2O [Compound 1, 7,8,18-trihydroxyserrulat-14-ene]
inhibition at 10 µM [1]: -18%
inhibition at 10 µM [2]: -25%
inhibition at 10 µM [3]: 1%
inhibition at 10 µM [4]: 19%
% Inhibition of Control Specific Binding ([5]; 10 μM): significant inhibitory activity
inhibition at 10 µM ([5]; 10 μM): 100%
IC50 ([5]; Table 9, inhibition/concentration-response curve, read-out: IC50): 3.1 µM
inhibition at 10 µM [6]: 43%
inhibition at 10 µM [7]: 3%
inhibition at 10 µM [8]: 41%
remaining activity at 10 µM [9]: 33%
inhibition at 10 µM [10]: -22%
GI50 ([11]; SK-NEP-1, read-out: GI50): 0.00618 µM
EC50 ([11]; SK-NEP-1, Kidney): 0.01 µM
GI50 [11, 22]: 0.006 µM
IC50 ([11]; SK-NEP-1, Kidney): 0.01 µM
inhibition at 10 µM [12]: 37%
% Inhibition of Control Values ([13]; 10 μM): significant inhibitory activity
inhibition at 10 µM ([13]; 10 μM): 68%
IC50 [13, 23]: 6.7 µM
% Control Response [14]: 2%
inhibition at 10 µM [15]: -2%
inhibition at 10 µM [16]: 18%
inhibition at 10 µM [17]: 6%
% Inhibition of Control Values ([18]; 10 μM): significant inhibitory activity
inhibition at 10 µM ([18]; 10 μM): 70%
IC50 [18, 23]: 3.6 µM
inhibition at 10 µM [19]: 8%
GI50 ([20]; calculated on a weight-weight basis, read-out: GI50): 0.37 µg/mL
EC50 ([20]; Skin (Melanoma)): 1.18 µM
GI50 [20, 24]: 1.16 µM
IC50 ([20]; Skin (Melanoma)): 1.27 µM
EC50 [21]: 1.21 µM
GI50 [21]: 1.2 µM
IC50 [21]: 1.21 µM
Relative cell count (%) Mean ([21]; SW480, 3.00E+00 microM): 4.1%
Relative cell count (%) Mean ([21]; SW480, 3.00E+01 microM): 0.4%
Relative cell count (%) Mean ([21]; SW480, 3.01E−01 microM): 93.5%
Relative cell count (%) Mean ([21]; SW480, 3.01E−02 microM): 99.5%
Relative cell count (%) Mean ([21]; SW480, 3.02E−03 microM): 116.5%
Relative cell count (%) Mean ([21]; SW480, 9.49E+00 microM): 0.2%
Relative cell count (%) Mean ([21]; SW480, 9.51E−01 microM): 69.9%
Relative cell count (%) Mean ([21]; SW480, 9.52E−02 microM): 94.1%
Relative cell count (%) Mean ([21]; SW480, 9.53E−03 microM): 103.7%
Relative cell count (%) Mean ([21]; SW480, 9.55E−04 microM): 111.8%

CC(C)=CCC[C@@H]1C(O)Oc2c(C)cc(O)c3c2[C@H]1CC[C@H]3C (stereo partly drawn) [Compound 2, 5,18-epoxyserrulat-14-en-8,18-diol]
inhibition at 10 µM [1]: 3%
inhibition at 10 µM [2]: -26%
inhibition at 10 µM [3]: 0%
inhibition at 10 µM [4]: 26%
inhibition at 10 µM ([5]; 10 μM): 16%
inhibition at 10 µM [6]: 23%
inhibition at 10 µM [7]: 20%
inhibition at 10 µM [8]: -3%
remaining activity at 10 µM [9]: -3%
inhibition at 10 µM [10]: -21%
GI50 ([11]; SK-NEP-1, read-out: GI50): 0.0606 µM
EC50 ([11]; SK-NEP-1, Kidney): 0.06 µM
GI50 [11, 22]: 0.06 µM
IC50 ([11]; SK-NEP-1, Kidney): 0.06 µM
inhibition at 10 µM [12]: 16%
inhibition at 10 µM ([13]; 10 μM): 5%
% Control Response [14]: −6%
inhibition at 10 µM [15]: 3%
inhibition at 10 µM [16]: -2%
inhibition at 10 µM [17]: 2%
inhibition at 10 µM ([18]; 10 μM): 6%
inhibition at 10 µM [19]: -8%
EC50 ([20]; Skin (Melanoma)): 9.07 µM
GI50 [20, 24]: 8.99 µM
IC50 ([20]; Skin (Melanoma)): 9.48 µM
EC50 [21]: 10.1 µM
GI50 [21]: 9.93 µM
IC50 [21]: 10.1 µM

CC(C)=CCC[C@@H]1COc2c(C)cc(O)c3c2[C@H]1CC[C@H]3C [Compound 3, 5,18-epoxy-8-hydroxyserrulat-14-ene]
inhibition at 10 µM [1]: 3%
inhibition at 10 µM [2]: -20%
inhibition at 10 µM [3]: -24%
inhibition at 10 µM [4]: 4%
inhibition at 10 µM ([5]; 10 μM): 9%
inhibition at 10 µM [6]: 29%
inhibition at 10 µM [7]: -54%
inhibition at 10 µM [8]: 16%
remaining activity at 10 µM [9]: -5%
inhibition at 10 µM [10]: -33%
inhibition at 10 µM [12]: 3%
inhibition at 10 µM ([13]; 10 μM): 27%
% Control Response [14]: 3%
inhibition at 10 µM [15]: 2%
inhibition at 10 µM [16]: 18%
inhibition at 10 µM [17]: 10%
inhibition at 10 µM ([18]; 10 μM): -2%
inhibition at 10 µM [19]: 9%

CC(C)=CCC[C@H](C)[C@@H]1CC[C@@H](C)c2c1cc(C)c(O)c2O [Compound 4, 7,8-dihydroxyserrulat-14-ene]
EC50 ([11]; SK-NEP-1, Kidney): 9.62 µM
GI50 [11, 22]: 9.62 µM
IC50 ([11]; SK-NEP-1, Kidney): 9.63 µM
EC50 ([20]; Skin (Melanoma)): 5 µM
GI50 [20, 24]: 4.02 µM
IC50 ([20]; Skin (Melanoma)): 5.18 µM
EC50 [21]: 12.3 µM
GI50 [21]: 12.3 µM
IC50 [21]: 12.3 µM

Nc1ncnc2c1ncn2[C@@H]1O[C@H](CSCC[C@H](N)C(=O)O)[C@@H](O)[C@H]1O [SAH]
IC50 ([7]; read-out: Reference IC50): 9.1 µM
IC50 ([10]; read-out: Reference IC50): 9 µM
